# Measured values reported in PubChem BioAssay (NCI).
#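 Method: 48-hour compound exposure of cells in 96-well plates, five concentrations, linear interpolation of endpoints. TGI marks complete inhibition of growth.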 Where a SMILES comes first, the peptide text is derived from it. The star is where a group is joined. Boc = CC(C)(C)OC(=O)*
# How the values were obtained:
# Experiment in all cases: NCI-60 cell line screen, 48 h
# 786-0 renal = tested on: 786-0 renal
# A498 renal = tested on: A498 renal
# A549 NSCLC = tested on: A549 NSCLC
# ACHN renal = tested on: ACHN renal
# BT-549 breast = tested on: BT-549 breast
# CAKI-1 renal = tested on: CAKI-1 renal
# CCRF-CEM leukemia = tested on: CCRF-CEM leukemia
# COLO 205 colon = tested on: COLO 205 colon
# DU-145 prostate = tested on: DU-145 prostate
# EKVX NSCLC = tested on: EKVX NSCLC
# HCC-2998 colon = tested on: HCC-2998 colon
# HCT-116 colon = tested on: HCT-116 colon
# HCT-15 colon = tested on: HCT-15 colon
# HL-60(TB) leukemia = tested on: HL-60(TB) leukemia
# HOP-62 NSCLC = tested on: HOP-62 NSCLC
# HOP-92 NSCLC = tested on: HOP-92 NSCLC
# HS 578T breast = tested on: HS 578T breast
# HT29 colon = tested on: HT29 colon
# IGROV1 ovarian = tested on: IGROV1 ovarian
# K-562 leukemia = tested on: K-562 leukemia
# KM12 colon = tested on: KM12 colon
# LOX IMVI melanoma = tested on: LOX IMVI melanoma
# M14 melanoma = tested on: M14 melanoma
# MALME-3M melanoma = tested on: MALME-3M melanoma
# MCF7 breast = tested on: MCF7 breast
# MDA-MB-231 breast = tested on: MDA-MB-231 breast
# MDA-MB-435 = tested on: MDA-MB-435
# MDA-N = tested on: MDA-N
# MOLT-4 leukemia = tested on: MOLT-4 leukemia
# NCI-H226 lung = tested on: NCI-H226 lung
# NCI-H23 lung = tested on: NCI-H23 lung
# NCI-H460 lung = tested on: NCI-H460 lung
# NCI-H522 lung = tested on: NCI-H522 lung
# NCI/ADR-RES ovarian = tested on: NCI/ADR-RES ovarian
# OVCAR-4 ovarian = tested on: OVCAR-4 ovarian
# OVCAR-5 ovarian = tested on: OVCAR-5 ovarian
# OVCAR-8 ovarian = tested on: OVCAR-8 ovarian
# PC-3 prostate = tested on: PC-3 prostate
# RPMI-8226 leukemia = tested on: RPMI-8226 leukemia
# RXF 393 renal = tested on: RXF 393 renal
# SF-268 CNS = tested on: SF-268 CNS
# SF-295 CNS = tested on: SF-295 CNS
# SK-MEL-2 melanoma = tested on: SK-MEL-2 melanoma
# SK-MEL-28 melanoma = tested on: SK-MEL-28 melanoma
# SK-MEL-5 melanoma = tested on: SK-MEL-5 melanoma
# SK-OV-3 ovarian = tested on: SK-OV-3 ovarian
# SN12C renal = tested on: SN12C renal
# SNB-19 CNS = tested on: SNB-19 CNS
# SNB-75 CNS = tested on: SNB-75 CNS
# SR leukemia = tested on: SR leukemia
# SW-620 colon = tested on: SW-620 colon
# T-47D breast = tested on: T-47D breast
# TK-10 renal = tested on: TK-10 renal
# U251 CNS = tested on: U251 CNS
# UACC-257 melanoma = tested on: UACC-257 melanoma
# UACC-62 melanoma = tested on: UACC-62 melanoma
# UO-31 renal = tested on: UO-31 renal
# OVCAR-3 ovarian = tested on: OVCAR-3 ovarian
# SF-539 CNS = tested on: SF-539 CNS
smiles,measurement,setting,value
Cc1nnc(N)nc1/C=C\c1ccc(N(C)C)cc1,TGI,786-0 renal,> 100 µM
same,TGI,A498 renal,> 100 µM
same,TGI,A549 NSCLC,> 100 µM
same,TGI,ACHN renal,> 100 µM
same,TGI,BT-549 breast,> 100 µM
same,TGI,CAKI-1 renal,> 63.3 µM
same,TGI,CCRF-CEM leukemia,> 100 µM
same,TGI,COLO 205 colon,> 100 µM
same,TGI,DU-145 prostate,> 100 µM
same,TGI,EKVX NSCLC,> 100 µM
same,TGI,HCC-2998 colon,23.8 µM
same,TGI,HCT-116 colon,> 100 µM
same,TGI,HCT-15 colon,> 59.2 µM
same,TGI,HL-60(TB) leukemia,8.91 µM
same,TGI,HOP-62 NSCLC,> 100 µM
same,TGI,HOP-92 NSCLC,> 100 µM
same,TGI,HS 578T breast,> 100 µM
same,TGI,HT29 colon,> 100 µM
same,TGI,IGROV1 ovarian,> 100 µM
same,TGI,K-562 leukemia,> 100 µM
same,TGI,KM12 colon,> 100 µM
same,TGI,LOX IMVI melanoma,20.1 µM
same,TGI,M14 melanoma,> 100 µM
same,TGI,MALME-3M melanoma,> 100 µM
same,TGI,MCF7 breast,> 100 µM
same,TGI,MDA-MB-231 breast,> 100 µM
same,TGI,MDA-MB-435,> 100 µM
same,TGI,MDA-N,> 100 µM
same,TGI,MOLT-4 leukemia,> 100 µM
same,TGI,NCI-H226 lung,> 100 µM
same,TGI,NCI-H23 lung,> 100 µM
same,TGI,NCI-H460 lung,> 100 µM
same,TGI,NCI-H522 lung,17.1 µM
same,TGI,NCI/ADR-RES ovarian,> 100 µM
same,TGI,OVCAR-4 ovarian,> 100 µM
same,TGI,OVCAR-5 ovarian,> 100 µM
same,TGI,OVCAR-8 ovarian,> 100 µM
same,TGI,PC-3 prostate,> 100 µM
same,TGI,RPMI-8226 leukemia,> 100 µM
same,TGI,RXF 393 renal,> 100 µM
same,TGI,SF-268 CNS,> 100 µM
same,TGI,SF-295 CNS,> 100 µM
same,TGI,SK-MEL-2 melanoma,> 100 µM
same,TGI,SK-MEL-28 melanoma,> 100 µM
same,TGI,SK-MEL-5 melanoma,> 100 µM
same,TGI,SK-OV-3 ovarian,> 100 µM
same,TGI,SN12C renal,> 100 µM
same,TGI,SNB-19 CNS,> 100 µM
same,TGI,SNB-75 CNS,> 100 µM
same,TGI,SR leukemia,> 100 µM
same,TGI,SW-620 colon,> 100 µM
same,TGI,T-47D breast,> 100 µM
same,TGI,TK-10 renal,> 100 µM
same,TGI,U251 CNS,> 100 µM
same,TGI,UACC-257 melanoma,> 100 µM
same,TGI,UACC-62 melanoma,> 66.9 µM
same,TGI,UO-31 renal,> 100 µM
CC(NC(=O)OC(C)(C)C)C(=O)NC(Cc1ccccc1)C(=O)NCC(=O)O (stereo not drawn) (Boc-Ala-Phe-Gly-OH; configuration not given here),TGI,786-0 renal,> 100 µM
same,TGI,A498 renal,> 100 µM
same,TGI,A549 NSCLC,> 100 µM
same,TGI,ACHN renal,> 100 µM
same,TGI,BT-549 breast,> 100 µM
same,TGI,CAKI-1 renal,> 100 µM
same,TGI,CCRF-CEM leukemia,> 100 µM
same,TGI,COLO 205 colon,> 100 µM
same,TGI,DU-145 prostate,> 100 µM
same,TGI,EKVX NSCLC,> 100 µM
same,TGI,HCC-2998 colon,> 100 µM
same,TGI,HCT-116 colon,> 100 µM
same,TGI,HCT-15 colon,> 100 µM
same,TGI,HL-60(TB) leukemia,> 100 µM
same,TGI,HOP-62 NSCLC,> 100 µM
same,TGI,HOP-92 NSCLC,> 100 µM
same,TGI,HS 578T breast,> 100 µM
same,TGI,HT29 colon,> 100 µM
same,TGI,IGROV1 ovarian,> 100 µM
same,TGI,K-562 leukemia,> 100 µM
same,TGI,KM12 colon,> 100 µM
same,TGI,LOX IMVI melanoma,> 100 µM
same,TGI,M14 melanoma,> 100 µM
same,TGI,MALME-3M melanoma,> 100 µM
same,TGI,MCF7 breast,> 100 µM
same,TGI,MDA-MB-231 breast,> 100 µM
same,TGI,MDA-MB-435,> 100 µM
same,TGI,MDA-N,> 100 µM
same,TGI,MOLT-4 leukemia,> 100 µM
same,TGI,NCI-H226 lung,> 100 µM
same,TGI,NCI-H23 lung,> 100 µM
same,TGI,NCI-H460 lung,> 100 µM
same,TGI,NCI-H522 lung,> 100 µM
same,TGI,NCI/ADR-RES ovarian,> 100 µM
same,TGI,OVCAR-3 ovarian,> 100 µM
same,TGI,OVCAR-5 ovarian,> 100 µM
same,TGI,OVCAR-8 ovarian,> 100 µM
same,TGI,PC-3 prostate,> 100 µM
same,TGI,RPMI-8226 leukemia,> 100 µM
same,TGI,RXF 393 renal,> 100 µM
same,TGI,SF-268 CNS,> 100 µM
same,TGI,SF-295 CNS,> 100 µM
same,TGI,SF-539 CNS,> 100 µM
same,TGI,SK-MEL-2 melanoma,> 100 µM
same,TGI,SK-MEL-28 melanoma,> 100 µM
same,TGI,SK-MEL-5 melanoma,> 100 µM
same,TGI,SK-OV-3 ovarian,> 100 µM
same,TGI,SN12C renal,> 100 µM
same,TGI,SNB-19 CNS,> 100 µM
same,TGI,SNB-75 CNS,> 100 µM
same,TGI,SR leukemia,> 100 µM
same,TGI,SW-620 colon,> 100 µM
same,TGI,T-47D breast,> 100 µM
same,TGI,TK-10 renal,> 100 µM
same,TGI,U251 CNS,> 100 µM
same,TGI,UACC-257 melanoma,> 100 µM
same,TGI,UACC-62 melanoma,> 100 µM
same,TGI,UO-31 renal,> 100 µM
